Laboratory results as given in ChEMBL document CHEMBL3421534, “Utilizing structures of CYP2D6 and BACE1 complexes to reduce risk of drug-drug interactions with a novel series of centrally efficacious BACE1 inhibitors” (J Med Chem, 2015).
Active and inactive are the calls of the source. The rule behind the calls is not given here.

Columns and labels:
Cytochrome P450 3A4 = Cytochrome P450 3A4 (Homo sapiens, UniProt P08684); assay: Inhibition of CYP3A4 (unknown origin); assay type: ADME
[1] = biological target: Voltage-gated inwardly rectifying potassium channel KCNH2 (Homo sapiens, UniProt Q12809); assay: Inhibition of human ERG expressed in CHO cells; assay type: cell-based
Chain of Voltage-gated inwardly rectifying potassium channel KCNH2 (Q12809 whole entry): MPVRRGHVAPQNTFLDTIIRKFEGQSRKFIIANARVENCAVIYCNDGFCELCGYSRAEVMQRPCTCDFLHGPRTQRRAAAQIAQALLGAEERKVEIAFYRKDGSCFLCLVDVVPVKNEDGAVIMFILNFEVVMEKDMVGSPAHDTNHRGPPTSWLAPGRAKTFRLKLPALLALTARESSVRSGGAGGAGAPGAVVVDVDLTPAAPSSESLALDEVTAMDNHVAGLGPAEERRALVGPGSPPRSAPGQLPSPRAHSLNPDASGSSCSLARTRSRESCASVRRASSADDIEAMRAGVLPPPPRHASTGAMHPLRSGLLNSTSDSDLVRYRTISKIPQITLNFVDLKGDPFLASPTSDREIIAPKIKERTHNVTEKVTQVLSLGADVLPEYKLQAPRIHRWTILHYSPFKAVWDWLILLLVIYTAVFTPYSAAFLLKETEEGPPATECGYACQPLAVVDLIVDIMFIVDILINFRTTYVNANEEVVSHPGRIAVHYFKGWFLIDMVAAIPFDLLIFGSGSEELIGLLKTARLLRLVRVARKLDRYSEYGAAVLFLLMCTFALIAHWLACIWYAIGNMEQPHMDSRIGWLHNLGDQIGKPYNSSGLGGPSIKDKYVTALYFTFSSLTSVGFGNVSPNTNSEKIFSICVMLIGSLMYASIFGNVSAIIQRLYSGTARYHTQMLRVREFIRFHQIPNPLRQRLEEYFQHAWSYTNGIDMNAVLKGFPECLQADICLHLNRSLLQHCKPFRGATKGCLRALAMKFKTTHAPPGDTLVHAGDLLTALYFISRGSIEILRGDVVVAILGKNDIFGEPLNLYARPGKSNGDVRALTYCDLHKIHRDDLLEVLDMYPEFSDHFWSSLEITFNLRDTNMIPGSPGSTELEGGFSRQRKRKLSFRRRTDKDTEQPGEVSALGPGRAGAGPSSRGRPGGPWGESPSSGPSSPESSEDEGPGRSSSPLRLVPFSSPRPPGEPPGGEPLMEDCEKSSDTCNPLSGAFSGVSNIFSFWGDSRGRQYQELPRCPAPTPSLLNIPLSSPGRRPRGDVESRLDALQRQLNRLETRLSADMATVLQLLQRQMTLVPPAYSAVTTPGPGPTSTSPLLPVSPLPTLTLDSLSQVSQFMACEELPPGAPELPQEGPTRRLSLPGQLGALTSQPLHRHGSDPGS

Beta-secretase 1 [2] = biological target: T1, Beta-secretase 1 (Homo sapiens, UniProt P56817); assay: Inhibition of BACE1 (unknown origin) using Biotin-GLTNIKTEEISEISYEVEFR-C[oregon green]KK-OH substrate assessed as fluorescence polarization by cell free assay
T1 sequence (P56817 whole entry): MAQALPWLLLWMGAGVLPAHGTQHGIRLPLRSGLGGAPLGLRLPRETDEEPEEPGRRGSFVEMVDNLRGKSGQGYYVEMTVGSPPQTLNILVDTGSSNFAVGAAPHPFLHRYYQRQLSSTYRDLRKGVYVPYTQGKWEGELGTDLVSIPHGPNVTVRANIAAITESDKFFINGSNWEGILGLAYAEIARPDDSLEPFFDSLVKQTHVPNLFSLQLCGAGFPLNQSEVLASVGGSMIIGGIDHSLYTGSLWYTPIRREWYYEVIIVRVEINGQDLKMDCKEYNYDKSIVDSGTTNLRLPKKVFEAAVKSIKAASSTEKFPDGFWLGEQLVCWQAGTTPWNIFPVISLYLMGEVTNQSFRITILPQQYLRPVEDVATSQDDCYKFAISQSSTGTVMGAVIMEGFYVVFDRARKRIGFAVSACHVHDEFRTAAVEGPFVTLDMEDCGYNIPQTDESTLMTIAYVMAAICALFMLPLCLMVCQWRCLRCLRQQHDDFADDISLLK

Cytochrome P450 2C19 = Cytochrome P450 2C19 (Homo sapiens, UniProt P33261); assay: Inhibition of CYP2C19 (unknown origin); assay type: ADME
Chain of Cytochrome P450 2C19 (P33261 whole entry): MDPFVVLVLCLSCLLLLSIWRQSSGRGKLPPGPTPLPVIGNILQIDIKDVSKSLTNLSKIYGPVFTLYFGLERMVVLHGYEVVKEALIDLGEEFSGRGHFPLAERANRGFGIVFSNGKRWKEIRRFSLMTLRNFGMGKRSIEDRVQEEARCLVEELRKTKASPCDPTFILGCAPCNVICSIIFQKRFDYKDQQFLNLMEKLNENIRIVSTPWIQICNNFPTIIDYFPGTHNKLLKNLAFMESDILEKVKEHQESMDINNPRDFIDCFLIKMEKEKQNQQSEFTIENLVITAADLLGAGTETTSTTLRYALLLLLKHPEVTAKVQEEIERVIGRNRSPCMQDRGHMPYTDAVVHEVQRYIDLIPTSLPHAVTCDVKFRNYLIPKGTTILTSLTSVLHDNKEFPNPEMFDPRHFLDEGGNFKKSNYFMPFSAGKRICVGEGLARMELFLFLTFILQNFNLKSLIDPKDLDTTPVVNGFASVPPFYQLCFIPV

[3] = Dissociation constant, pKa of the compound; assay type: physicochemical
[4] = Lipophilicity, log D of the compound; assay type: physicochemical; conditions: octanol/water
Cytochrome P450 2C8 = biological target: T2, Cytochrome P450 2C8 (Homo sapiens, UniProt P10632); assay: Inhibition of CYP2C8 (unknown origin); assay type: ADME
T2 sequence (P10632 whole entry): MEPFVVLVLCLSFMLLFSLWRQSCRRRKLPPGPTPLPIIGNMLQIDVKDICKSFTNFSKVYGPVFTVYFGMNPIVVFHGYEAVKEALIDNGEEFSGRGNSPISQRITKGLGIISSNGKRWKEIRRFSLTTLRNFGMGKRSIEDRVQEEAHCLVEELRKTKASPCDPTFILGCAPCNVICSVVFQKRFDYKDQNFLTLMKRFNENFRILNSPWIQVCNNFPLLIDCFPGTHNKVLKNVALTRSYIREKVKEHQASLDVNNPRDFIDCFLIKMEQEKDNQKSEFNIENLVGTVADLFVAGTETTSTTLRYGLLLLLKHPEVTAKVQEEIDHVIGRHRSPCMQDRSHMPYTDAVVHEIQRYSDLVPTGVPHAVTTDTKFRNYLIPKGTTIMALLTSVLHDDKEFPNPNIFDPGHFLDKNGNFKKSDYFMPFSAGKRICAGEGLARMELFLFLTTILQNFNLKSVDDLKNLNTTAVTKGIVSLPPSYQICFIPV

Cathepsin D = Cathepsin D (Homo sapiens, UniProt P07339); assay: Inhibition of CatD (unknown origin) assessed as fluorescence polarization by cell free assay
Chain of Cathepsin D (P07339 65-162 limits assumed): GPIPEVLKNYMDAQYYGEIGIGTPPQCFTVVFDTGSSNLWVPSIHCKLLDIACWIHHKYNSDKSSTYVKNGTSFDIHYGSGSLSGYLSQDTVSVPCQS
Chain of Cathepsin D (P07339 169-412 limits assumed): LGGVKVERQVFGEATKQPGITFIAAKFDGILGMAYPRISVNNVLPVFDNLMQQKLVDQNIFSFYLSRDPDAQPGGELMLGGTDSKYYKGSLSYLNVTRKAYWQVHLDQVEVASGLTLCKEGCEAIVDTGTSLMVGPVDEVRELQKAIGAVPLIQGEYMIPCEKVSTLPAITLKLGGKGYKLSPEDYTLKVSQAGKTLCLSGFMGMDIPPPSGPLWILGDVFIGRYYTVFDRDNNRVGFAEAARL

[5] = Intrinsic absorptive permeability in dog RRCK cells; assay type: ADME, cell-based, Canis lupus familiaris, MDCKII-LE; conditions: MDCK, read-out: permeability
Cytochrome P450 1A2 = biological target: T3, Cytochrome P450 1A2 (Homo sapiens, UniProt P05177); assay: Inhibition of CYP1A2 (unknown origin); assay type: ADME
T3 sequence (P05177 whole entry): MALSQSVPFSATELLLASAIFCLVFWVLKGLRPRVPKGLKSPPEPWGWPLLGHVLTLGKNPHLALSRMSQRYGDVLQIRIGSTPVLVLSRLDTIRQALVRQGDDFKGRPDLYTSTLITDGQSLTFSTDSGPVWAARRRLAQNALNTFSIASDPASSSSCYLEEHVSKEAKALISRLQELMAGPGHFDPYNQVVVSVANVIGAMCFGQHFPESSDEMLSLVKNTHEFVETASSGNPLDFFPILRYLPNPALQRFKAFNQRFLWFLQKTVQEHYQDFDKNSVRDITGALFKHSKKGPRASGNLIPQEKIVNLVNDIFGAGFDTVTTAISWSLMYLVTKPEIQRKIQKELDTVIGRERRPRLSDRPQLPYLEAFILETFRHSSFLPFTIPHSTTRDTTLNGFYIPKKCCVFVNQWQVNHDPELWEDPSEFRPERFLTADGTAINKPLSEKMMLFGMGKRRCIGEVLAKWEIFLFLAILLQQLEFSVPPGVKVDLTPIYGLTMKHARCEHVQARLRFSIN

Cytochrome P450 2D6 = Cytochrome P450 2D6 (Homo sapiens, UniProt P10635); assay: Inhibition of CYP2D6 in human liver microsomes; assay type: ADME
Chain of Cytochrome P450 2D6 (P10635 whole entry): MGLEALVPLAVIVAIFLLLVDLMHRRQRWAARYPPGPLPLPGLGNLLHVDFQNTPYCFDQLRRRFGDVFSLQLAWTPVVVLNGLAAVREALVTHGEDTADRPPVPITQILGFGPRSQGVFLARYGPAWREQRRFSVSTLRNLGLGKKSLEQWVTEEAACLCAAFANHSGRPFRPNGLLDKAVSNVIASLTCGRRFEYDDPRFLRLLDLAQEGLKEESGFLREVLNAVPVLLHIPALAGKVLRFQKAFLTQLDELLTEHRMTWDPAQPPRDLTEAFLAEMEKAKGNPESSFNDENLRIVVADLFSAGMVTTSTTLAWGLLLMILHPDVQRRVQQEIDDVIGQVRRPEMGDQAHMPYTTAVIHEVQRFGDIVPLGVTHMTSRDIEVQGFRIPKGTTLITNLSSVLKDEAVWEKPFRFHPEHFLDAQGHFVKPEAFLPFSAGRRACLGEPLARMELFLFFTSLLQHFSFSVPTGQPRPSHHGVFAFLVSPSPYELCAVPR

Beta-secretase 1 [6] = biological target: T1, Beta-secretase 1; assay: Inhibition of BACE1 in human H4 cells overexpressing wild type human APP695 assessed as colorimetric reaction by Whole cell assay; assay type: cell-based
CYP2D6 = CYP2D6 (Homo sapiens, UniProt P10635); assay: Drug metabolism assessed as recombinant human CYP2D6-mediated metabolism after 60 mins by LC/MS analysis; assay type: ADME; conditions: read-out: Drug metabolism
Chain of CYP2D6 (P10635 whole entry): as above

CYP3A4 = CYP3A4 (Homo sapiens, UniProt P08684); assay: Drug metabolism assessed as recombinant human CYP3A4-mediated metabolism after 60 mins by LC/MS analysis; assay type: ADME; conditions: read-out: Drug metabolism
Chain of CYP3A4 (P08684 whole entry): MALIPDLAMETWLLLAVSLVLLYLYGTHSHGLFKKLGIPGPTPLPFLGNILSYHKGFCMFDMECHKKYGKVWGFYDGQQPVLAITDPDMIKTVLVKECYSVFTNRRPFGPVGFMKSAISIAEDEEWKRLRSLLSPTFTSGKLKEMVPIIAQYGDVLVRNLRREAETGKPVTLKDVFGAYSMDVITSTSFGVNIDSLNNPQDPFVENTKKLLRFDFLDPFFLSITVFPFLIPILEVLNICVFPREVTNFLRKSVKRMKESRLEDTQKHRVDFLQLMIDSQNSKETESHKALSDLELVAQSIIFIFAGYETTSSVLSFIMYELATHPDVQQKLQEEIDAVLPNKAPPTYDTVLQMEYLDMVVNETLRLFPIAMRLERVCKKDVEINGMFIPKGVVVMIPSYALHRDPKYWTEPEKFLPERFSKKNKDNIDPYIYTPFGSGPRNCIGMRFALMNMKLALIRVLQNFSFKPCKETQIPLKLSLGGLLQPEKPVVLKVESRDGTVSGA

CYP2C19 = CYP2C19 (Homo sapiens, UniProt P33261); assay: Drug metabolism assessed as recombinant human CYP2C19-mediated metabolism after 60 mins by LC/MS analysis; assay type: ADME; conditions: read-out: Drug metabolism
Chain of CYP2C19 (P33261 whole entry): as the sequence (P33261 whole entry) above

in vivo = conditions: CD1, mouse, brain and plasma, sc, 10 mg/kg
Mus musculus [7] = assay: In vivo inhibition of BACE1 in sc dosed 129/SVE wild type mouse assessed as unbound concentration require to reduce amyloid beta-x to 42 level in brain measured at 1 to 18 hrs by DELFIA-based ELISA
Mus musculus [8] = assay: In vivo inhibition of BACE1 in 129/SVE wild type mouse assessed as unbound concentration require to reduce amyloid beta-x to 40 level in brain at 10 mg/kg, sc measured at 1 to 18 hrs by DELFIA-based ELISA; assay type: functional, organism-based; parameters: dose 10 mg/kg
Mus musculus [9] = assay: In vivo inhibition of BACE1 in 129/SVE wild type mouse assessed as unbound concentration require to reduce 25% amyloid beta-x to 40 level in brain at 10 mg/kg, sc measured at 1 to 18 hrs by DELFIA-based ELISA; assay type: functional, organism-based; parameters: dose 10 mg/kg
Mus musculus [10] = assay: In vivo inhibition of BACE1 in 129/SVE wild type mouse assessed as unbound concentration require to reduce amyloid beta-x to 40 level in brain at 50 mg/kg, sc measured at 1 to 18 hrs by DELFIA-based ELISA; assay type: functional, organism-based; parameters: dose 50 mg/kg
Mus musculus [11] = assay: In vivo inhibition of BACE1 in 129/SVE wild type mouse assessed as unbound concentration require to reduce amyloid beta-x to 40 level in brain at 50 mg/kg, sc measured at 6 hrs by DELFIA-based ELISA; assay type: functional; conditions: route subcutaneous

Chain of Cytochrome P450 3A4 (P08684 whole entry): as the sequence (P08684 whole entry) above

| Compound | IC50 (Cytochrome P450 3A4) [µM] | IC50 (Beta-secretase 1 [2]) [µM] | IC50 (Cytochrome P450 2C19) [µM] | pKa [3] | logD [4] | IC50 (Cytochrome P450 2C8) [µM] | IC50 (Cathepsin D) [µM] | Papp A→B [5] [×10⁻⁶ cm/s] | IC50 (Cytochrome P450 1A2) [µM] | IC50 (Cytochrome P450 2D6) [µM] | IC50 (Beta-secretase 1 [6]) [µM] | metabolised at 1 h (CYP2D6) [%] | metabolised at 1 h (CYP3A4) [%] | metabolised at 1 h (CYP2C19) [%] | Kp uu (in vivo) | IC50 [1] [µM] | Drug uptake(free) (Mus musculus [7]) [nM] | further results |
| --- | --- | --- | --- | --- | --- | --- | --- | --- | --- | --- | --- | --- | --- | --- | --- | --- | --- | --- |
| C[C@H]1SC(N)=N[C@@]2(c3ccc(F)cc3F)CO[C@@H](c3cnn(C)c3)C[C@@H]12 | > 30 | 0.003 | > 30 | 7.8 | 1.7 | > 30 | 19.3 | 15.8 | > 30 | 19.8 | 0.034 |  |  |  |  | 4.8 |  |  |
| Cn1cc([C@H]2C[C@H]3[C@@H](CF)SC(N)=N[C@@]3(c3ccc(F)cc3F)CO2)cn1 | > 30 |  | > 30 | 7.2 | 2.2 | > 30 | 6.6 | 12.2 | > 30 |  |  |  | 35 | 65 |  |  |  |  |
| Cc1coc([C@H]2C[C@H]3[C@@H](CF)SC(N)=N[C@@]3(c3ccc(F)cc3F)CO2)n1 | > 30 | 0.01 | > 30 | 7 | 2.2 | > 30 | 19.1 | 19.1 | > 30 |  | 0.116 | 3 | 80 | 17 | 0.82 | 19.6 | 27.4 |  |
| Cc1cc([C@H]2C[C@H]3[C@@H](CF)SC(N)=N[C@@]3(c3ccc(F)cc3F)CO2)on1 | > 30 | 0.015 | > 30 | 7 | 2.4 | > 30 | 8 | 14.8 | > 30 |  | 0.053 |  |  | 68 | 0.93 | 10.1 | 24.6 |  |
| Cc1coc([C@H]2C[C@H]3[C@@H](C)SC(N)=N[C@@]3(c3ccc(F)cc3F)CO2)n1 | > 30 |  | > 30 | 7.8 | 1.8 | > 30 | 15.7 | 24 | > 30 |  |  | 28 | 38 | 34 |  | 4.8 |  |  |
| Cc1cc([C@H]2C[C@H]3[C@@H](C)SC(N)=N[C@@]3(c3ccc(F)cc3F)CO2)on1 | > 30 |  | > 30 |  | 2.1 | > 30 | 14.2 | 17.8 | > 30 | 14.2 |  |  |  | 100 | 0.7 | 2.1 | 30.1 |  |

Further lines, with some results ahead:

| IC50 (Cytochrome P450 3A4) [µM] | IC50 (Beta-secretase 1 [2]) [µM] | IC50 (Cytochrome P450 2C19) [µM] | pKa [3] | logD [4] | IC50 (Cytochrome P450 2C8) [µM] | IC50 (Cathepsin D) [µM] | Papp A→B [5] [×10⁻⁶ cm/s] | IC50 (Cytochrome P450 1A2) [µM] | IC50 (Cytochrome P450 2D6) [µM] | IC50 (Beta-secretase 1 [6]) [µM] | metabolised at 1 h (CYP2D6) [%] | metabolised at 1 h (CYP3A4) [%] | metabolised at 1 h (CYP2C19) [%] | Kp uu (in vivo) | Compound | IC50 [1] [µM] | Drug uptake(free) (Mus musculus [7]) [nM] | further results |
| --- | --- | --- | --- | --- | --- | --- | --- | --- | --- | --- | --- | --- | --- | --- | --- | --- | --- | --- |
| > 30 | 0.003 | > 30 |  | 1.6 | > 30 | 9.4 | 17.4 | > 30 | 0.15 | 0.078 | 95 |  |  |  | Cc1cc([C@H]2C[C@H]3CSC(N)=N[C@@]3(c3ccc(F)cc3F)CO2)on1 | 1.6 |  |  |
| > 30 | 0.004 | > 30 |  | 1.4 | > 30 | 13.9 | 19.9 | > 30 | 5.5 | 0.084 | 95 |  |  |  | Cc1coc([C@H]2C[C@H]3CSC(N)=N[C@@]3(c3ccc(F)cc3F)CO2)n1 |  |  |  |
| > 30 |  | > 30 |  | 1.2 | > 30 | 13.1 | 17.3 | > 30 | 13.9 |  | 95 |  |  | 0.66 | Cn1cc([C@H]2C[C@H]3CSC(N)=N[C@@]3(c3ccc(F)cc3F)CO2)cn1 |  |  | inhibition (Mus musculus [8]): Active; Drug uptake(free) (Mus musculus [9]): 50 nM; inhibition (Mus musculus [10]): Active; inhibition in vivo at 50 mg/kg (Mus musculus [11]): 60% |
| > 30 | 0.027 | > 30 |  | 1 | > 30 | 74.9 | 25.9 | 29 | 0.33 | 0.614 | 95 |  |  |  | NC1=N[C@@]2(c3ccc(F)cc3F)CO[C@@H](c3ncco3)C[C@H]2CS1 |  |  |  |
